Data from PMC10603063, “A quantitative method for determination of colistin E2 methanesulphonate in human plasma by ^15N-labeled colistin E2” (Scientific Reports, 2023).
Like-named read-outs stand apart in the source and are kept apart here. Peptide text beside a SMILES is read from it.

Key:
[1] = for long-term storage stability: colistin E2-spiked samples, at least 93 days
Description: (§1) Referring to Zhou et al.[10], for each plasma sample, 100 µL of 5% ammonia was added to a mixture containing 100 µL of CMS E2 calibration plasma standards or QCs and 20 µL of 15 µg/ml IS solution. After vortexing, the mixtures were loaded onto WCX SPE plates. Before loading the sample, the WCX SPE plates were preconditioned with 1 ml methanol followed by 1 mL water to activate the extraction. The plate was sequentially washed with 1 mL of water, 1 mL of methanol, 1 mL of 70% ACN with 2% ammonia, and 1 ml 0.5% FA. Subsequently, 300 µL of 70% ACN with 6% FA was used to elute the analytes twice. Total eluents (600 µL) were collected with an SPE 96-Deep Square Well collection plate, mixed in a 96-well plate mixer, and analyzed by UHPLC-MS/MS.
(§2) The stability of colistin E2 was evaluated at two levels (low and high QCs).
(§3) The hydrolysis of CMS E2 is temperature dependent; the lower the temperature, the slower the hydrolysis rate. The samples were processed in ice water. Therefore, we studied their stability in ice-water. In the presence of CMS E2 (the spiked concentration was 50 times the concentration of colistin, which can cover the clinical samples), the stability of colistin E2 was also evaluated under the following conditions: on the bench top in ice water for 21 h, four freeze–thaw cycles, storage at − 20 ℃ and − 80 ℃ (at least 98 days), and storage of extracts at 4 ℃ in an auto-sampler for 22.5 h.
The method was used for the stability study, and all the following medicinal solutions and plasma samples were prepared and used in an ice water bath and stored at -20 °C after use.
2.6.4 Preparation of plasma quality control sample QC_mix for CMS E2/Colistin E2

[2] = test system: Bordetella bronchitica ATCC4617; assay: Cylinder-plate potency method of the United States pharmacopoeia; format: cell-based
Text: In addition to at least 30 minor polymyxins with very similar physiochemical properties, colistin consists of colistin E1 and colistin E2 (Fig. 1)[6]. According to European Pharmacopoeia records, the components with the same molecular weight as colistin E1 are colistin E1-7MOA and E1-I, and colistin E2 is colistin E3, E2-I, and E1-Nva. In short, except for the principal components colistin E1 and E2, other components with similar physicochemical properties account for nearly 20% of colistin. These components could not be separated from colistin E1/E2 using mobile phases containing formic acid but were identified as a single peak of polymyxin E1/E2 by HPLC. This neglected problem actually brings some interferes with single component or colistin quantification. In the process of developing CMS, we successfully purified single components of colistin E1 and E2 with a purity of more than 99% by preparative HPLC using a specific salt mobile phase.

[3] = Description: as §1, §2, §3
[4] = remark: listed apart in the source
Description: as §2
as §3, with “[…],” for “on the bench top in ice water for 21 h,”

[5] = stock solution in methanol: water (1: 1)
Description: as §2
The standard curve stock solution and the quality control stock solution for colistin E2 need to be prepared from different weighing. All solutions were kept at -20°C.
The colistin E2 reference was accurately weighed and dissolved with an appropriate amount of methanol: water (1: 1) to prepare a stock solution SS-A with a concentration of 3 mg/mL.

Row | Molecule | benchtop stability ([1]; colistin E2-spiked plasma, low and high QCs, without CMS E2, bench top in ice water for 24 h) | freeze–thaw stability ([1]; colistin E2-spiked plasma, low and high QCs, without CMS E2, four freeze–thaw cycles) | long-term storage stability ([1]; low and high QCs, −20 ℃) | long-term storage stability ([1]; low and high QCs, −80 ℃) | %Change, benchtop stability ([1]; human plasma (EDTA-K2) spiked with CMS E2 (50 times colistin concentration; QC_mix 24/0.48 µg/mL), 21 h in ice water, UHPLC-MS/MS) | %Change, long-term stability ([1]; human plasma spiked with CMS E2, 41 d in freezer (−20℃), UHPLC-MS/MS) | antibacterial activity (comparison of purified single components) ([2]; single components purified to more than 99% by preparative HPLC) | duration of stability in the auto-sampler ([3]; extracts after WCX SPE removal of CMS E2, auto-sampler (4℃)) | stability of extracts ([3]; extracts at 4 ℃ in an auto-sampler for 65.5 h, without CMS E2) | %Change, processed sample stability ([3]; sample extracts of matrix spiked with CMS E2, 22.5 h in an auto-sampler (4℃), UHPLC-MS/MS) | percentage of change in blood spiked with CMS E2 ([4]; blood spiked with CMS E2, ice water for 60 min) | stability in fresh whole blood ([4]; fresh whole blood (EDTA-K2), bench top in ice water for 66 min, without CMS E2) | stability of stock solutions ([5]; stored at ambient for 21 h) | stability of stock solutions, long-term ([5]; −20 ℃ for at least 97 days) | potency ([2]; cylinder-plate method, United States pharmacopoeia, test bacteria Bordetella bronchitica ATCC4617)
1 | CC(C)CCCCC(=O)N[C@@H](CCN)C(=O)N[C@H](C(=O)N[C@@H](CCN)C(=O)N[C@H]1CCNC(=O)[C@H]([C@@H](C)O)NC(=O)[C@H](CCN)NC(=O)[C@H](CCN)NC(=O)[C@H](CC(C)C)NC(=O)[C@@H](CC(C)C)NC(=O)[C@H](CCN)NC1=O)[C@@H](C)O [colistin E2] (HELM PEPTIDE1{[CC(C)CCCCC(=O)[*:2]].[Dab].T.[Dab].[Dab].[Dab].[dL].L.[Dab].[Dab].T}$PEPTIDE1,PEPTIDE1,5:R3-11:R2$$$V2.0) | no degradation | no degradation | no degradation | no degradation | 2.0% | 1.3% | higher than that of E1 | at least 22.5 h | no degradation | 4.4% | less than 15% | no degradation | no degradation | no degradation | 
2 | colistin E2 methanesulphonate [CMS E2] |  |  |  |  |  |  |  |  |  |  |  |  |  |  | 611 µg/mg
